Where two headings read alike, the source gives them in different places.
Columns and labels:
[1] = test system: anaesthetised normotensive rats; experiment: Hypotensive effect in anaesthetised normotensive rats; type: in vivo, rat; details: for effect on blood pressure / effect on heart rate accompanying fall in blood pressure: anaesthetised normotensive rats, cumulative 0.01-10 μg/kg; for ED20: Effective dose to produce a fall in blood pressure by 20%: urethane-anaesthetised male normotensive rats, cumulative doses via femoral vein
Experimental: Male normotensive rats were anaesthetised with urethane (1.2 g/kg, i.p.). Carotid artery and femoral vein were cannulated for recording blood pressure and administration of test compounds respectively. Trachea was cannulated to maintain the airway patency. Rats were divided into two groups of 10 rats each. Group I received compound of Formula I, and Group II received Tamsulosin. Compounds were administered cumulatively at dose level of 0.01, 0.03, 0.1, 0.3, 1 & 10 μg/kg and effects on blood pressure and heart rate were monitored. Each subsequent dose in cumulative dose range was administered after previous response had stabilized.
Blood pressure and heart rate were recorded before and after drug treatment on a Grass polygraph using a Statham pressure transducer and tachograph. Effect on blood pressure was expressed as percentage change from the basal level. ED20 was calculated by fitting the cumulative dose response data in non-linear regression analysis and the value was taken from the curve. Effect on heart rate was expressed as change in beats/min.
To compare the difference amongst the dose groups one-way ANOVA followed by Dunett ‘t’ test was applied. A p of <0.05 was considered statistically significant.

human α1D-adrenoceptors = target: T1, human α1D-adrenoceptors (Homo sapiens, UniProt P25100); experiment: Radioligand-receptor binding assay, human recombinant α1D-adrenoceptor, [3H]prazosin
T1 sequence (P25100 1-572): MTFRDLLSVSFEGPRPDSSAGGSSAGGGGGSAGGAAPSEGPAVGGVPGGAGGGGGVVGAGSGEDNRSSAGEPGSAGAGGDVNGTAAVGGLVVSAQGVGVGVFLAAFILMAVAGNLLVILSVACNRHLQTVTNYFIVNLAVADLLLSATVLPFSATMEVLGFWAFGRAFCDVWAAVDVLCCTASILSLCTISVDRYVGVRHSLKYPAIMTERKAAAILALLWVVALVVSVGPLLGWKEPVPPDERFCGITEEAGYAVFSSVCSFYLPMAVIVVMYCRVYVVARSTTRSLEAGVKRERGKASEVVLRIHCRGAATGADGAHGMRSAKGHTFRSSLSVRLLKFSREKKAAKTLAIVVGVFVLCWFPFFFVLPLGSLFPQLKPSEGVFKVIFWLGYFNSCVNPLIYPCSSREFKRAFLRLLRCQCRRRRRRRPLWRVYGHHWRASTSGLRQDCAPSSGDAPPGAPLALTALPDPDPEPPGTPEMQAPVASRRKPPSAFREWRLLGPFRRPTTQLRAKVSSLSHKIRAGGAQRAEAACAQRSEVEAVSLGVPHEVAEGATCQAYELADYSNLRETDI
Experimental: (§1) Chinese hamster ovary (CHO) cells which had been stably transfected with human α1A, α1B, or α1D-adrenoceptors (Keffel et al., Biochem. Biophys. Res. Commun., 2000, 272, 906–11) were cultured in an atmosphere of 5% CO2/95% air at 37° C. in F-12 HAM medium supplemented with 10% heat-inactivated fetal calf serum, 1 mM glutamine, 100 U/ml penicillin and 0.1 mg/ml streptomycin. Selection pressure was maintained by regular addition of geneticin to the culture medium.
(§2) Competitive radioligand binding to the cloned subtypes of […] was performed using [^3H]prazosin as the radioligand as described by Michel et al, Br. J. Pharmacol., 98, 883–889 (1989) with minor modifications. Experiments were performed in binding buffer consisting of 50 mM Tris, 10 mM MgCl2 and 0.5 mM EDTA at pH 7.5 in a total assay volume of 1000 μl. The protein content typically was 40–60 μg/assay. The mixtures were incubated at 25° C. for 45 minutes. Incubations were terminated by rapid vacuum filtration over GF/C filters followed by two washes of the filters each with 10 ml ice-cold incubation buffer. Non-specific binding was defined as binding in the presence of 10 μM phentolamine.
(§3) The IC50 & Kd were estimated by using the non-linear curve fitting program using G Pad Prism software. The value of inhibition constant Ki was calculated from competitive binding studies by using Cheng & Prusoff equation [Cheng & Prusoff, Biochem. Pharmacol., 22, 3099–3108 (1973)], Ki=IC50/(1+L/Kd), where L is the concentration of [^3H] prazosin used in the particular experiment. Kd of [^3H] prazosin was determined from saturation binding studies. The values were tabulated as mean±SEM of pKi values, where pKi is the −log of Ki value.

human α1A-adrenoceptors = target: T2, human α1A-adrenoceptors (Homo sapiens, UniProt P35348); experiment: Radioligand-receptor binding assay, human recombinant α1A-adrenoceptor, [3H]prazosin
T2 sequence (P35348 1-466): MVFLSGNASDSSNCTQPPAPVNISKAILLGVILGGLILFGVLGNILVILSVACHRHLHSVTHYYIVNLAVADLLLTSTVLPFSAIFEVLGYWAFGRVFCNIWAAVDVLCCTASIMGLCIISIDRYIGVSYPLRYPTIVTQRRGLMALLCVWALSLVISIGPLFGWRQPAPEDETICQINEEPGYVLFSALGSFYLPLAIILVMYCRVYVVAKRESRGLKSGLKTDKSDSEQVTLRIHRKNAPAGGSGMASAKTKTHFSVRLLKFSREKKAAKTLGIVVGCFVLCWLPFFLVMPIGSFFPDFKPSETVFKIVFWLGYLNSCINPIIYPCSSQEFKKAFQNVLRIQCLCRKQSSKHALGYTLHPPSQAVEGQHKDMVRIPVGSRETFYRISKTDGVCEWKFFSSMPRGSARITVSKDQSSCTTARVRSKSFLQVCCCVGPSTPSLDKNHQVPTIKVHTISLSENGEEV
Experimental: as §1, §2, §3

human α1B-adrenoceptors = target: T3, human α1B-adrenoceptors (Homo sapiens, UniProt P35368); experiment: Radioligand-receptor binding assay, human recombinant α1B-adrenoceptor, [3H]prazosin
T3 sequence (P35368 1-520): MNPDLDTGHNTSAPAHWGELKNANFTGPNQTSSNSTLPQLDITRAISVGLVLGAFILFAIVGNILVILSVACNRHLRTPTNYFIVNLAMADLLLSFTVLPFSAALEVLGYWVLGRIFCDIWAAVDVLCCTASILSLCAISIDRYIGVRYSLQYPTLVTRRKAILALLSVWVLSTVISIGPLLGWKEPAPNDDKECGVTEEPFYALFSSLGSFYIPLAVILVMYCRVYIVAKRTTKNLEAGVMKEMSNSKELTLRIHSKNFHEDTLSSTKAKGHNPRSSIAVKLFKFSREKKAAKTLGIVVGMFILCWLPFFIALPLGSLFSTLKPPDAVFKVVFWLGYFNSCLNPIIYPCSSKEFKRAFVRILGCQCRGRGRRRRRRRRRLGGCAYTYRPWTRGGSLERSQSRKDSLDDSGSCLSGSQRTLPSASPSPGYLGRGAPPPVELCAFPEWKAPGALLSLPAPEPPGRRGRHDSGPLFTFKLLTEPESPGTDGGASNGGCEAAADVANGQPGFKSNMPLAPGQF
Experimental: as §1, §2, §3

SMILES | effect on blood pressure [1] | effect on heart rate accompanying fall in blood pressure [1] | ED20: Effective dose to produce a fall in blood pressure by 20% [1] [µg/kg] | Ki (human α1D-adrenoceptors) [pM] | fold greater affinity for α1A-adrenoreceptor subtype than the corresponding (S)-isomer (human α1A-adrenoceptors; human recombinant receptors) [fold] | Ki (human α1A-adrenoceptors; human recombinant receptors in CHO cells, mean ± SEM, read-out: pKi α1A (converted)) [pM] | Ki (human α1B-adrenoceptors) [pM] | melting point [°C] | Ki (human α1D-adrenoceptors; human recombinant receptors in CHO cells, mean ± SEM, read-out: pKi α1D (converted)) [pM] | Ki (human α1B-adrenoceptors; human recombinant receptors in CHO cells, mean ± SEM, read-out: pKi α1B (converted)) [pM]
CCOc1ccccc1OCCN[C@H](C)Cc1ccc(O)c(S(N)(=O)=O)c1 [Formula I, R (−)-5-[2-[[2-(2-ethoxyphenoxy)ethyl]amino]propyl]-2-hydroxybenzenesulfonamide] | dose dependent fall in blood pressure | increase in heart rate | 0.52 | 107 | 102 | 21.9 | 324 | 159.5 | – | –
CCOc1ccccc1OCCNC(C)Cc1ccc(OC)c(S(N)(=O)=O)c1 (single isomer, unassigned; (-)) [Tamsulosin, (−) isomer of 5-[2-[2-(2-ethoxyphenoxy)ethylamino]-2-methylethyl]-2-methoxybenzene sulfonamide, reference compound] | dose dependent fall in blood pressure | decrease in the heart rate | 0.3 | – | – | – | – | – | 81.3 | 692
